Experiments:
[1] = post-injection, human brain SPECT; cited from earlier work
human VAChT = target: T1, human VAChT (Homo sapiens, UniProt Q16572); experiment: VAChT competitive binding assay with [^3H]vesamicol
T1 sequence (Q16572 1-532): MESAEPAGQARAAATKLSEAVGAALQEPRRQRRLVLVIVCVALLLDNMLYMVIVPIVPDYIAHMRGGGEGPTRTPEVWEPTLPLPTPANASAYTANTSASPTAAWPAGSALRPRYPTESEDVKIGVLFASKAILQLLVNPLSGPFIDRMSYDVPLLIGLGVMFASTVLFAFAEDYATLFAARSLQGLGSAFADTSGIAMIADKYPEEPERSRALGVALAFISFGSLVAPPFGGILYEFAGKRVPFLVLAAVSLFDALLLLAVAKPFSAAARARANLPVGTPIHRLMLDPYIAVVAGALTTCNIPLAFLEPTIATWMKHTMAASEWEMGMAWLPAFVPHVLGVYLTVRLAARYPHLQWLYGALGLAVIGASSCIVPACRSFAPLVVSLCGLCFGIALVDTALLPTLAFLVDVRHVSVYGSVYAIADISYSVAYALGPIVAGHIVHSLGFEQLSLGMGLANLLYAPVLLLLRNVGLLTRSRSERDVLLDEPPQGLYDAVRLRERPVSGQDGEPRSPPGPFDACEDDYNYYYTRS

σ2 receptor = target: T2, σ2 receptor (Rattus norvegicus, UniProt Q5U3Y7); experiment: σ2 receptor binding assay with [^3H]DTG in the presence of; settings: for Ki: Ki-σ2, [^3H]DTG + 1 μM (+)-pentazocine, rat liver membranes, mean ± SEM
T2 sequence (Q5U3Y7 1-176): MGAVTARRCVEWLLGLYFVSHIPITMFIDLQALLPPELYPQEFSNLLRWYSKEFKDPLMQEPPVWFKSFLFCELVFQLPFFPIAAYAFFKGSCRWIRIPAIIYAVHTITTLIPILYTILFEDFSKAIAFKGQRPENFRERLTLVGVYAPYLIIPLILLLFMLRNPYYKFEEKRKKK

VAChT = settings: brain of both NHP and human subjects; cited from earlier work

OC1Cc2cccc([123I])c2CC1N1CCC(c2ccccc2)CC1 (single isomer, unassigned; (-)) [[^123I]IBVM, (-)-5-[^123I]iodo-benzovesamicol]
time required for quantification of peak uptake in the target regions [1]: at least 6 hr

O=C(c1ccc(F)cc1)C1CCN(C2Cc3c(cccc3OCCF)CC2O)CC1 (single isomer, unassigned; (-)) [(-)-18a, (-)-(1-(8-(2-Fluoroethoxy)-3-hydroxy-1,2,3,4-tetrahydronaphthalen-2-yl)piperidin-4-yl)(4-fluorophen-yl)-methanone]
selectivity for VAChT versus σ receptors (human VAChT): > 10,000 fold
Ki (σ2 receptor): > 10 µM
VAChT/ σ2 (σ2 receptor; selectivity ratio): >10,000

O[C@@H]1Cc2cccc(OCC[18F])c2C[C@H]1N1CCC(c2ccccc2)CC1 [[^18F]FEOBV, [^18F]fluoroethoxy-benzovesamicol]
delayed equilibrium of brain kinetics (VAChT): > 360 min p.i.

O=C(c1ccc(F)cc1)C1CCN(C2Cc3c(cccc3OCCF)CC2O)CC1 (racemic) [Compound 18a, (1-(8-(2-Fluoroethoxy)-3-hydroxy-1,2,3,4-tetrahydronaphthalen-2-yl)piperidin-4-yl)(4-fluorophenyl)methanone]
Ki (σ2 receptor): > 10 µM

Reference: publication PMC4524497 (Bioorganic & medicinal chemistry, 2015)
